The subject of assay [1] is Escherichia coli (E. coli - ATCC #10536). Nature of the assay: Synergy test: high resolution MBC microtiter plate assay, 15 seconds contact, phosphate buffer containing 35% dipropylene glycol. The assay is classed as cell-based. The note with it: E. coli 10536; for SI (Synergy Index = Qa/QA + Qb/QB): for Qa and Qb, less than one = synergy; for MBC of the component acting alone (QA or QB; Qa with Qb = 0, or Qb with Qa = 0): complete kill in 15 seconds, phosphate buffer with 35% DPG. From the text: The concentrations and ratios may also vary under different test conditions or with different test methods.
One measure of synergy is the industrially accepted method described by Kull, F. C.; Eisman, P. C.; Sylwestrowicz, H. D. and Mayer, R. L., in Applied Microbiology 9:538-541 (1961), using the ratio determined by the formula: Qa/QA+Qb/QB=Synergy Index (“SI”) wherein: • QA=concentration of compound A (first component) in percent, acting alone, which produced an end point (MBC of Compound A). • Qa=concentration of compound A in percent, in the mixture, which produced an end point. • QB=concentration of compound B (second component) in percent, acting alone, which produced an end point (MBC of Compound B). • Qb=concentration of compound B in percent, in the mixture, which produced an end point.
When the sum Qa/QA and Qb/QB is greater than one, antagonism is indicated. […] The lower the SI, the greater is the synergy shown by that particular mixture. The minimum biocidal concentration (MBC) of a microbicide is the lowest concentration tested under a specific set of conditions that provides complete kill of the tested microorganisms.
Synergy tests were conducted using standard microliter plate assays with phosphate buffer containing 35% dipropylene glycol (DPG). In this method, a wide range of combinations of chemicals was tested by conducting high resolution MBC assays of Component (A) in the presence of various concentrations of Component (B). High resolution MBCs were determined by adding varying amounts of microbicide to one column of a microliter plate and doing subsequent […] dilutions using an automated liquid handling system to obtain a series of closely spaced endpoints. The MBC plate was inoculated one column at a time with the test microorganism. An aliquot of the inoculated well was transferred at 15 seconds to a plate containing a neutralising agent (D/E Neutralising Broth), mixed and held for 5 minutes before being transferred to a growth plate-containing trypticase soy broth (TSB). The TSB plate was incubated at 37° C. and read for the presence/absence of growth at 24 hours. The lowest level tested that provided complete kill (as evidenced by no growth in the microtitre plate) of the test organisms in 15 seconds is the minimum biocidal concentration (MBC).
The synergy of the combinations of the present invention was determined against a bacterium, Escherichia coli (E. coli—ATCC #10536), at a concentration of approximately 1×10^8 bacteria per mL. This microorganism is representative of natural contaminants in many consumer and industrial applications.

The test system is the same in assay [2]. The assay can be described thus: Automated assessment of efficacy in model surfactant solution (2.85% sodium cocoyl glycinate + 1.85% sodium lauroamphoacetate, pH 10), 15 seconds exposure. The assay is classed as cell-based. The note with it: for MBC (% w/v) / MBC: 2.85% sodium cocoyl glycinate + 1.85% sodium lauroamphoacetate solution at pH 10, E. coli, component alone; for No. of replicates showing growth (out of 4) / ΔOD 450 nm = OD450 (time = 16 hours) − OD450 (time zero), Mean / ΔOD 590 nm = OD590 (time = 16 hours) − OD590 (time zero), Mean: model surfactant solution, pH 10, 15 s exposure; for MBC: Escherichia coli, ATCC10536, 15 s. The protocol: In these examples, the efficacy of combinations of actives were tested in a surfactant cleansing formulation comprising 2.85% sodium cocoyl glycinate and 1.85% sodium, lauroamphoacetate.
This corresponds to a 50% in use dilution with water of a neat formulation containing 5.7% cocoyl glycinate and 3.7% sodium lauroamphoacetate during hand washing.
Solutions were prepared such that the concentrations of the surfactant components and test actives were 1.1× the final desired concentration in order to allow for dilution with the bacterial inoculum in the test. The solutions were manually adjusted to pH 10.0 by dropwise addition of sodium hydroxide solution, as measured with a pH meter at ambient temperature.
The efficacy of the combinations of the present invention was determined against Escherichia coli (E. coli—ATCC #10536), at a concentration of approximately 1×10^8 bacteria per mL.
Tests were conducted using standard microliter plate assays using an automated liquid handling system. 270 μl of the surfactant test solution was pipetted into each well of the microtitre plate and 30 μl of the bacterial suspension was then added. After exactly 15 seconds of bacterial exposure, a 30 μl volume of bacterial cells was withdrawn and transferred to 270 μl of D/E quench solution. After 5 minutes in the D/E quench, the optical density (OD) was measured for each plate in turn at two specific wavelengths (450 nm and 590 nm). These provide a dual check of antimicrobial, activity, as the OD450 reading is specific for the yellow colour of D/E quench when bacterial growth is observed, whereas OD590 is specific for the initial purple colour of the D/E quench which is retained if no bacterial growth is observed. After the time zero OD measurements, plates were then incubated at 37° C. overnight (16 hours) before repeating the OD measurements, Delta OD values were calculated by subtracting […] the initial value at time zero. Bacterial growth is observed as an increase in OD450 and a decrease in ΔOD590. To identify antibacterially efficacious systems (those preventing appreciable bacterial growth after incubation), the following threshold changes in OD readings have been adopted: if (1). OD450 increases by less than 0.2 absorbance unit on incubation and (2). OD590 decreases by less than 0.35 unit on incubation. Conversely, where OD450 increases by more than 0.2 AU and OD590 decreases by more than 0.35 unit after incubation, corresponding to a colour shift from purple to yellow, the test system allows bacterial growth and is not deemed efficacious. Four replicate measurements in the same plate have been made for each test system. The number of replicate wells showing either bacterial growth or no growth is also readily assessed by eye by following the colour change.

The next assay has as its system S. aureus 6538. The assay can be described thus: Antimicrobial efficacy of actives against S. aureus in water. The assay is classed as cell-based, Staphylococcus aureus.
Where [3] appears, read: single active alone at 0.1% w/v.
Where [4] appears, read: single active alone at 0.2% w/v.
The mark [5] stands for this setting: single active alone at 0.5% w/v.
Where [6] appears, read: single active alone at 0.175% w/v.

The text below walks through data of US9832995B2, “Microbial composition” (Rohm and Haas Company, priority 2011, dated 2017).

Values joined by “and” are separate entries in the source; they are usually repeats but may differ in a detail not shown here. Equal values may be shown once. Bounds are passed on as bounds.

Consider `Oc1ccccc1C1CCCC1` [2-cyclopentylphenol], for which the “SI (Synergy Index = Qa/QA + Qb/QB)” value in assay [1] was determined as 1.00.

Take `Oc1ccccc1Cc1ccccc1` [2-hydroxydiphenylmethane]: in assay [1], the “MBC of the component acting alone (QA or QB; Qa with Qb = 0, or Qb with Qa = 0)” value (“MBC of the component acting alone” for short) was 0.8 weight % and 0.6 weight % and 1.0 weight % and 0.5 weight %; the “SI (Synergy Index = Qa/QA + Qb/QB)” value is 1.00. The “MBC (% w/v)” value in assay [2] was greater than 0.2 % w/v. For the same compound, in assay [2] (setting [3]), the “No. of replicates showing growth (out of 4)” value is on record as 4; the “ΔOD 450 nm = OD450 (time = 16 hours) − OD450 (time zero), Mean” value (from here on “ΔOD 450 nm = OD450”) is reported as −0.51; the “ΔOD 590 nm = OD590 (time = 16 hours) − OD590 (time zero), Mean” value (“ΔOD 590 nm = OD590” for short) turned out to be 0.62. In assay [2] (setting [4]), the “No. of replicates showing growth (out of 4)” value was determined as 4; the “ΔOD 450 nm = OD450” value was −0.51; the “ΔOD 590 nm = OD590” value is reported as 0.63. In addition, in assay [2] (single active alone at […] w/v), the “No. of replicates showing growth (out of 4)” value was found to be 4; the “ΔOD 450 nm = OD450” value is given as −0.49; the “ΔOD 590 nm = OD590” value was 0.64.

With `C=C(C)C1CC=C(C)C(O)C1` (centres unmarked) [2-methyl-5-(prop-1-en-2-yl)cyclohex-2-enol], the “SI (Synergy Index = Qa/QA + Qb/QB)” value in assay [1] is 1.0. Also, in assay [2] (setting [5]), the “No. of replicates showing growth (out of 4)” value was determined as 0; the “ΔOD 450 nm = OD450” value was found to be 0.23; the “ΔOD 590 nm = OD590” value was 0.20. Moreover, the “No. of replicates showing growth (out of 4)” value in assay [2] (single active alone at […] w/v) worked out at 4. In addition, the “Log Reduction” value in the assay with S. aureus 6538 ([…] carveol) worked out at 0.08.

Regarding `C=C(C)C1CCC(C)C(O)C1` (centres unmarked) [2-methyl-5-(prop-1-en-2-yl)cyclohexanol], in assay [1], the “SI (Synergy Index = Qa/QA + Qb/QB)” value worked out at 1.00. For the same compound, in assay [2] (setting [4]), the “No. of replicates showing growth (out of 4)” value was found to be 4; the “ΔOD 450 nm = OD450” value is given as −0.49; the “ΔOD 590 nm = OD590” value worked out at 0.63. Besides, in assay [2] (single active alone at […] w/v), the “No. of replicates showing growth (out of 4)” value is 4; the “ΔOD 450 nm = OD450” value is given as −0.43; the “ΔOD 590 nm = OD590” value amounted to 0.66.

Consider `Cc1ccc(C(C)C)c(O)c1O` [3-isopropyl-6-methylbenzene-1,2-diol], for which the MBC (usually the smallest concentration meeting the test's criterion for killing) in assay [2] was greater than 2000 µg/mL.

Turning to `Cc1cc(O)c(C(C)C)cc1Cl` [4-chloro-2-isopropyl-5-methylphenol, reference compound], in assay [2] (setting [6]), the “No. of replicates showing growth (out of 4)” value stood at 4; the “ΔOD 450 nm = OD450” value is given as −0.49; the “ΔOD 590 nm = OD590” value stood at 0.58. Moreover, in assay [2] (setting [4]), the “No. of replicates showing growth (out of 4)” value was 4; the “ΔOD 450 nm = OD450” value is −0.51; the “ΔOD 590 nm = OD590” value is given as 0.60. Also, in assay [2] (single active alone at […] w/v), the “No. of replicates showing growth (out of 4)” value came out at 4; the “ΔOD 450 nm = OD450” value is on record as −0.49; the “ΔOD 590 nm = OD590” value was determined as 0.59.

`Oc1ccc(C2CCCC2)cc1` [4-cyclopentylphenol]: the “SI (Synergy Index = Qa/QA + Qb/QB)” value in assay [1] is recorded as 1.00.

`Oc1ccc(Cc2ccccc2)cc1` [4-hydroxydiphenylmethane]: in assay [1], the “MBC of the component acting alone” value is 1.0 weight % and 0.6 weight %; the “SI (Synergy Index = Qa/QA + Qb/QB)” value was determined as 1.00. Also, the “MBC (% w/v)” value in assay [2] is reported as greater than 0.2 % w/v. For the same compound, in assay [2] (setting [3]), the “No. of replicates showing growth (out of 4)” value was 4; the “ΔOD 450 nm = OD450” value is listed as −0.58; the “ΔOD 590 nm = OD590” value is on record as 0.52. In addition, in assay [2] (setting [4]), the “No. of replicates showing growth (out of 4)” value is reported as 4; the “ΔOD 450 nm = OD450” value is listed as −0.52; the “ΔOD 590 nm = OD590” value is reported as 0.61. In assay [2] (single active alone at […] w/v), the “No. of replicates showing growth (out of 4)” value came to 4; the “ΔOD 450 nm = OD450” value was −0.55; the “ΔOD 590 nm = OD590” value was determined as 0.54.

As to `CC(C)(C)c1ccc(O)c(O)c1` [4-tert-butylbenzene-1,2-diol], in assay [2], the MBC is greater than 2000 µg/mL.

Take `Oc1cccc2c1CCCC2` [5,6,7,8-tetrahydronaphthalen-1-ol]: in assay [1], the “MBC of the component acting alone” value stood at 0.6 weight %.

With `C=C(C)[C@@H]1CC[C@@H](C)C[C@H]1O` [(1R,2S,5R)-5-methyl-2-(prop-1-en-2-yl)cyclohexanol], in assay [1], the “SI (Synergy Index = Qa/QA + Qb/QB)” value was 1.00.

As for `C=C(C)C1CCC(C)CC1O` (centres unmarked) [Isopulegol, 5-methyl-2-(prop-1-en-2-yl)cyclohexanol], the “ΔOD 450 nm = OD450” value in assay [2] (setting [5]) was −0.09. Besides, in assay [2] (single active alone at […] w/v), the “No. of replicates showing growth (out of 4)” value was 4 and the “ΔOD 590 nm = OD590” value is on record as 0.64.

In the case of cyclopentyl phenol, the “Log Reduction” value in the assay on S. aureus 6538 (0.05% cyclopentyl phenol) came to 1.9.
